Data: ChEMBL document CHEMBL5665443, “Enzyme Inhibitor Single Concentration assay results for EUbOPEN Chemogenomics Library” (2024)

Tests used:
[1] = molecular target: G/T mismatch-specific thymine DNA glycosylase (Homo sapiens) (UniProt Q13569); conditions: Hit No;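 also: human TDG cleavage of quenched duplex DNA oligonucleotides coupled to APE1, strand release read as fluorescence at 594 nm, inhibition of TDG activity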
Description: Inhibition of TDG by quantifying inhibition of TDG-mediated cleavage and dissociation of quenched duplex DNA oligonucleotides, measured as fluorescence at 594 nm. To generate a functional strand incision and increase turn-over this assay is coupled to APE1.

[2] = molecular target: T1, Endonuclease 8-like 2 (Homo sapiens) (UniProt Q969S2); conditions: Hit No;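 also: fluorescence at 594 nm reports NEIL2 cutting and release of a quenched double-stranded DNA oligo substrate, reduced signal read as inhibition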
T1 sequence (whole entry): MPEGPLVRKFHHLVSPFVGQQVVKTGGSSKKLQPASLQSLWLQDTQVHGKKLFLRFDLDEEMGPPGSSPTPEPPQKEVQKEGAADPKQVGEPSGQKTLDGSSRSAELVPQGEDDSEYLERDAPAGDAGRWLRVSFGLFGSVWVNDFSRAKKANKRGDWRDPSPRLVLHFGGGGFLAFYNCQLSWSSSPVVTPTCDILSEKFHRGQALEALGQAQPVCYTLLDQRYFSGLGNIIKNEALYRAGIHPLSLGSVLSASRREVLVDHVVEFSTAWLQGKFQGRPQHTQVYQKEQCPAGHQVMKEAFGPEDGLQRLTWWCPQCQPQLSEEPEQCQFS
Description: Inhibition of NEIL2 by quantifying inhibition of NEIL2-mediated cleavage and dissociation of quenched duplex DNA oligonucleotides, measured as fluorescence at 594 nm.

[3] = molecular target: Endonuclease 8-like 1 (Homo sapiens) (UniProt Q96FI4); conditions: Hit No;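 also: fluorescence at 594 nm from quenched duplex DNA oligonucleotides released by NEIL1 cleavage and strand separation, reported as reduction of this enzyme activity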
Description: Inhibition of NEIL1 by quantifying inhibition of NEIL1-mediated cleavage and dissociation of quenched duplex DNA oligonucleotides, measured as fluorescence at 594 nm.

[4] = molecular target: T2, Endonuclease III-like protein 1 (Homo sapiens) (UniProt P78549); conditions: Hit No;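 also: enzyme assay tracking NTHL1 cutting and release of a quenched double-stranded DNA oligo substrate, read as fluorescence at 594 nm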
T2 sequence (whole entry): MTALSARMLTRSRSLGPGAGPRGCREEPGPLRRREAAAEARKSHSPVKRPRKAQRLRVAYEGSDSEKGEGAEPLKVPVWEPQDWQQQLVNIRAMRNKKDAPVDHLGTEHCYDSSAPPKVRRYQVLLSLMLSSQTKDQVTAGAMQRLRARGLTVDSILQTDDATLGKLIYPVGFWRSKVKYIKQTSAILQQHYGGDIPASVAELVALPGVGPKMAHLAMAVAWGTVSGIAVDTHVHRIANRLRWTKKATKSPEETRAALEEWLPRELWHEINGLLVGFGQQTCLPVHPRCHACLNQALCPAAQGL
Description: Inhibition of NTHL1 by quantifying inhibition of NTHL1-mediated cleavage and dissociation of quenched duplex DNA oligonucleotides, measured as fluorescence at 594 nm.

[5] = molecular target: N-glycosylase/DNA lyase (Homo sapiens) (UniProt O15527);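 also: OGG1 cleavage of a quenched duplex DNA oligonucleotide, coupled to APE1 for strand incision, read as fluorescence at 594 nm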
Description: Inhibition of OGG1 by quantifying inhibition of OGG1-mediated cleavage and dissociation of quenched duplex DNA oligonucleotides, measured as fluorescence at 594 nm. To generate a functional strand incision and increase turn-over this assay is coupled to APE1.

[6] = molecular target: Uracil-DNA glycosylase (Homo sapiens) (UniProt P13051); conditions: Hit No;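 also: UNG excision on a quenched double-stranded DNA oligo probe, with APE1 added for strand incision and turnover, read as fluorescence at 594 nm as strands separate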
Description: Inhibition of UNG by quantifying inhibition of UNG-mediated cleavage and dissociation of quenched duplex DNA oligonucleotides, measured as fluorescence at 594 nm. To generate a functional strand incision and increase turn-over this assay is coupled to APE1.

[7] = molecular target: T3, Single-strand selective monofunctional uracil DNA glycosylase (Homo sapiens) (UniProt Q53HV7); conditions: Hit No;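 also: enzymatic SMUG1 assay coupled with APE1, reading fluorescence at 594 nm released when a quenched double-stranded DNA oligonucleotide substrate is cleaved and separated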
T3 sequence (whole entry): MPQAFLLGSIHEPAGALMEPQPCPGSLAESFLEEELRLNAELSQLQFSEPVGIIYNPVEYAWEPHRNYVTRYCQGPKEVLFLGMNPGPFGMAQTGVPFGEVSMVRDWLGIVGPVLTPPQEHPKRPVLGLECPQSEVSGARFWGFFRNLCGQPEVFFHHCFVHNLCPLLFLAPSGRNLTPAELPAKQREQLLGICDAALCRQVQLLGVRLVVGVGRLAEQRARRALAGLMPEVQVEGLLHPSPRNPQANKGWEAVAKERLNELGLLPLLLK
Description: Inhibition of SMUG1 by quantifying inhibition of SMUG1-mediated cleavage and dissociation of quenched duplex DNA oligonucleotides, measured as fluorescence at 594 nm. To generate a functional strand incision and increase turn-over this assay is coupled to APE1.

[8] = molecular target: Methyl-CpG-binding domain protein 4 (Homo sapiens) (UniProt O95243); conditions: Hit No;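 also: MBD4 activity read as fluorescence at 594 nm from cleavage and release of a quenched duplex DNA oligonucleotide, with APE1 coupled to incise the strand and raise turnover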
Description: Inhibition of MBD4 by quantifying inhibition of MBD4-mediated cleavage and dissociation of quenched duplex DNA oligonucleotides, measured as fluorescence at 594 nm. To generate a functional strand incision and increase turn-over this assay is coupled to APE1.

[9] = Compound Concentration 1.0 uM, Hit No
[10] = Compound Concentration 10.0 uM, Hit No

N-glycosylase/DNA lyase (Homo sapiens), sequence (O15527 whole entry): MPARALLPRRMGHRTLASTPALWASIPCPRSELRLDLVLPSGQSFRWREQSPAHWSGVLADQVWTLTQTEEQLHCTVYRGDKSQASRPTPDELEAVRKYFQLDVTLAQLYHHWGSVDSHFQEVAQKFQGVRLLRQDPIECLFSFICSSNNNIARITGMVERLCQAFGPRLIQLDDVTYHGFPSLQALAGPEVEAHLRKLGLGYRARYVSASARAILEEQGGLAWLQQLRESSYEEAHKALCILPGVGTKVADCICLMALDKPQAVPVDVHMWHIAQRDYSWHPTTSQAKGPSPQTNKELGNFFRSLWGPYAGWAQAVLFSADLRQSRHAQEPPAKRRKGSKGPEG
Uracil-DNA glycosylase (Homo sapiens), sequence (P13051 whole entry): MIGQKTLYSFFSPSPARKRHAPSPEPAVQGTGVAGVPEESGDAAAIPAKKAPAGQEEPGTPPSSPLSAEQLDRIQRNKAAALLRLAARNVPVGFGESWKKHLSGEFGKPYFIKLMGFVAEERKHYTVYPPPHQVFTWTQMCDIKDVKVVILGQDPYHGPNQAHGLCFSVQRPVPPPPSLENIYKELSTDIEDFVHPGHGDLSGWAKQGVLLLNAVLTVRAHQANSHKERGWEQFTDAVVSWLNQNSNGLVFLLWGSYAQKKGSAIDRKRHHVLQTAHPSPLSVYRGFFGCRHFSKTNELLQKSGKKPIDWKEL
Endonuclease 8-like 1 (Homo sapiens), sequence (Q96FI4 whole entry): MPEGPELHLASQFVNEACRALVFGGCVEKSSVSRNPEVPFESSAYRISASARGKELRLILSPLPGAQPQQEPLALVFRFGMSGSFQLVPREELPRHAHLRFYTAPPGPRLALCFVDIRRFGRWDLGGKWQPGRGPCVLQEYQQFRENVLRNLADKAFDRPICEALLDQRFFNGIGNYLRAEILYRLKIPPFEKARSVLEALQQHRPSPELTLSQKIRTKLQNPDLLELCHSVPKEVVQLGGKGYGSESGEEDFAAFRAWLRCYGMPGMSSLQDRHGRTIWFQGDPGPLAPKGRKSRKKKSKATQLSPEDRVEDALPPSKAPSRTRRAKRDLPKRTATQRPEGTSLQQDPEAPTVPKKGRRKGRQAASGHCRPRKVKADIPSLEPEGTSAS
G/T mismatch-specific thymine DNA glycosylase (Homo sapiens), sequence (Q13569 whole entry): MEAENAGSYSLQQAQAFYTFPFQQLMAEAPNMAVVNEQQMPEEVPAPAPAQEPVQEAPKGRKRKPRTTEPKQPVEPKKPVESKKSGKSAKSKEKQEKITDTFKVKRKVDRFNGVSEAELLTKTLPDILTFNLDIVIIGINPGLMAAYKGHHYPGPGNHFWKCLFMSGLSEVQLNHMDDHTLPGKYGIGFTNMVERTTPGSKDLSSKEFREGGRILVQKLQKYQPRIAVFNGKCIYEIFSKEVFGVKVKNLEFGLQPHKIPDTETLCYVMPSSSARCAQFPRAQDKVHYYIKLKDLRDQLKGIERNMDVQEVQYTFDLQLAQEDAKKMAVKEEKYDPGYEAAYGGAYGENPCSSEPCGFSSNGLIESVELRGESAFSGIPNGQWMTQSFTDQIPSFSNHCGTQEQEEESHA
Methyl-CpG-binding domain protein 4 (Homo sapiens), sequence (O95243 whole entry, the tested form may be a part): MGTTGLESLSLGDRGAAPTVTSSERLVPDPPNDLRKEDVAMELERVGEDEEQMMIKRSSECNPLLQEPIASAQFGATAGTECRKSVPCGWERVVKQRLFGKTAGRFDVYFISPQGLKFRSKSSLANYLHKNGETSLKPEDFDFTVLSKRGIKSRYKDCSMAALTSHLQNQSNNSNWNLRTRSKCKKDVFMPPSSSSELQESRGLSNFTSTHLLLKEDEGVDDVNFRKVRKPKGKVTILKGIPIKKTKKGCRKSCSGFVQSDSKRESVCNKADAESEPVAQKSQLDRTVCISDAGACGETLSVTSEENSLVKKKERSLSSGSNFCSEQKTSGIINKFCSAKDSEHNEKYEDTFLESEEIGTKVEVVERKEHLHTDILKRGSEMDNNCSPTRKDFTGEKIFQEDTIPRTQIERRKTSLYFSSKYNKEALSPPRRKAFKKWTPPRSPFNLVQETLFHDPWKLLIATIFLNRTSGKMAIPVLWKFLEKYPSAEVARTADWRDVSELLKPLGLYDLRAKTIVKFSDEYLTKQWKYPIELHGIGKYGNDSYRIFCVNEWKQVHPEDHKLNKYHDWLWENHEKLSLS

inhibition ([1]; Compound Concentration 1.0 uM) [%] | inhibition ([1]; Compound Concentration 10.0 uM) [%] | inhibition ([2]; Compound Concentration 1.0 uM) [%] | inhibition ([3]; Compound Concentration 1.0 uM) [%] | inhibition ([4]; Compound Concentration 10.0 uM) [%] | inhibition [5, 9] [%] | inhibition [5, 10] [%] | inhibition ([6]; Compound Concentration 1.0 uM) [%] | inhibition ([6]; Compound Concentration 10.0 uM) [%] | inhibition ([7]; Compound Concentration 1.0 uM) [%] | inhibition ([7]; Compound Concentration 10.0 uM) [%] | inhibition ([8]; Compound Concentration 1.0 uM) [%] | inhibition ([2]; Compound Concentration 10.0 uM) [%] | inhibition ([3]; Compound Concentration 10.0 uM) [%] | inhibition ([8]; Compound Concentration 10.0 uM) [%] | inhibition ([4]; Compound Concentration 1.0 uM) [%] | inhibition ([5]; Compound Concentration 10.0 uM, Hit Yes) [%] | SMILES
42.2 | 22.8 | -8.65 | -2.11 | -3.4 | 7.9 | 4.23 | -2.97 | 0.115 | 0.918 | 6.97 | 56.5 |  |  |  |  |  | O=C(NCCCC1CCCCC1)c1ccc(CNC(=O)c2cnn(-c3ccccc3)c2C(F)(F)F)cc1
 | 49.3 |  |  | -5.89 |  | -2.92 |  | -0.0293 |  | 3.56 |  | 0.0213 | -9.23 | 72.4 |  |  | C[C@@H](c1cccc(CN)c1)n1cc(Cl)cc(C(N)=O)c1=N
 | 39.5 |  |  | 6.6 |  | 34.6 |  | -6.23 |  | 7.63 |  | -6.1 | -5.14 | 48.6 |  |  | COc1ccc(-c2ccc3cc(C(=O)O)ccc3c2)cc1C12CC3CC(CC(C3)C1)C2
 | 58.3 |  |  | -3.92 |  | 10.8 |  | -0.808 |  | 8.36 |  | -7.38 | -4.23 | 55.4 |  |  | COc1cc(O)c(C(CC(=O)N2C[C@H](C)C[C@H](C)C2)c2ccc3c(c2)OCO3)c(OC)c1 (some centres not stated)
50.9 |  | 4.36 | 1.98 |  | 1.9 |  | 0.673 |  | 14.3 |  | 65.4 |  |  |  | -3.26 |  | COc1cc(N[C@@H]2CCCC[C@]2(O)C(F)(F)F)ccc1F
 | 63 |  |  | 7.26 |  | 20.6 |  | 2.02 |  | 9.54 |  | 4.61 | -0.29 | 57.9 |  |  | Cc1cc(OCC(=O)O)cc(C)c1Cc1ccc(O)c(C(C)C)c1
 | 53.4 |  |  | -7.86 |  | 1.85 |  | 2.34 |  | 10.3 |  | 4.1 | -7.56 | 45.8 |  |  | CNC(=O)COc1cc2cc(Nc3nc(N4C[C@H](C)C[C@H](C)C4)ncc3Cl)ccc2n(C)c1=O
32.5 |  | -4.38 | -6.27 |  | 0.775 |  | -2.6 |  | 3.33 |  | 25 |  |  |  | -4.24 |  | CN1C(=O)[C@@H](N2CCc3c(nn(Cc4ccccc4)c3Br)C2=O)COc2ccccc21
 | 39.3 |  |  | -7.86 |  | -3.61 |  | -0.0445 |  | 3.68 |  | -9.67 | -3.77 | 61.4 |  |  | FC(F)(F)c1ccc2c(c1)nc(-c1cccnc1)n2C1CC1
41 |  | -2.79 | -7.71 |  | -4.49 |  | 6.25 |  | 14.1 |  | 54.5 |  |  |  | -9.18 |  | CN(C)C(=O)Cn1cc(-c2nc([C@@](C)(c3ccc(-c4cnc(N)nc4)cc3)C3CC3)no2)cn1
 | 32.3 |  |  | -5.89 |  | -2.67 |  | -0.892 |  | 0.878 |  | -1.51 | -6.05 | 54 |  |  | Nc1nc(NCc2ccccc2)nc(-c2cccc(CO)c2)n1
 | 44.3 |  |  | 7.26 |  | 7.66 |  | -3.03 |  | -4.57 |  | 3.34 | -4.23 | 53.7 |  |  | COC(=O)/C=C/c1cccc(N(Cc2ccc(-c3ccc(N(C)C)cc3)cc2)C(=O)C2CCCCC2)c1
 | 38.6 |  |  | 3.31 |  | -1.79 |  | 5.92 |  | 10.4 |  | -6.36 | -3.92 | 52.7 |  |  | CC(=O)Nc1ccc(-c2cc(-c3ccccc3)nc3cc(C(=O)NCCCn4ccnc4)nn23)cc1
 | 28.5 |  |  | -4.57 |  | -1.05 |  | 0.169 |  | -1.6 |  | 15.3 | 0.77 | 53.8 |  |  | C=C1/C(=C\C=C2/CCC[C@]3(C)[C@@H]([C@H](C)/C=C/C=C/C(O)(CC)CC)CC[C@@H]23)C[C@@H](O)C[C@@H]1O
 | 40.6 |  |  | -3.26 |  | 4.16 |  | 2.78 |  | 8.89 |  | 5.12 | -1.35 | 47.2 |  |  | CNC(=O)c1cc(C(=O)N[C@H]2[C@@H]3COC[C@@H]32)cc2c1O[C@H](CF)[C@H]2c1ccccc1
 | 47.8 |  |  | 0.685 |  | -5.13 |  | 1.6 |  | 9.91 |  | -1.51 | -1.8 | 52.9 |  |  | C=C1/C(=C\C=C2/CCC[C@]3(C)[C@@H]([C@H](C)/C=C/[C@H](C)C(C)C)CC[C@@H]23)C[C@@H](O)C[C@@H]1O
 | 50.7 |  |  | -1.29 |  |  |  | 4.34 |  | 17.5 |  | -9.42 | -4.23 | 57.8 |  | 85.9 | O=C(O)c1ccc2cc(-c3ccc(O)c(C45CC6CC(CC(C6)C4)C5)c3)ccc2c1
 | 57.4 |  |  | -2.6 |  | 5 |  | -9.54 |  | 17.1 |  | -6.36 | -5.44 | 15.3 |  |  | CC(C)(O)c1cn(-c2ccc(-c3cccc(S(C)(=O)=O)c3)cc2)c(C(C)(C)c2ccccc2Cl)n1
51.4 |  | -9.67 | -5.74 |  | -5.28 |  | 1.27 |  | 3.85 |  | 59.5 |  |  |  | -7.2 |  | C[C@H](NC(=O)c1cn(C2(C#N)CC2)cn1)C(=O)Nc1nc(-c2cccc(-c3ccn(C)n3)c2)cs1
 | 16.4 |  |  | 7.79 |  | 0.771 |  | -5.14 |  | 1.61 |  | -1.48 | -4.5 | 5.84 |  |  | FC(F)(F)c1c(N2CCC(c3ccccc3)CC2)ccn2c(CC3CC3)nnc12
 | 4.53 |  |  | -6.86 |  | 6.16 |  | -2.92 |  | -0.636 |  | 3.73 | 16.8 | -4.31 |  |  | CCOC(=O)N1CCC(NS(=O)(=O)c2ccc(NC(=O)c3ccccc3C)c3ccccc23)CC1
 | 36.9 |  |  | -8.52 |  | 3.62 |  | -1.13 |  | 6.37 |  | -9.67 | -9.38 | 54.9 |  |  | O=C(NCc1ncc(C(F)(F)F)cc1Cl)c1ccc2c(c1)C1(CCS(=O)(=O)CC1)[C@@H](C1CC1)N2S(=O)(=O)c1ccc(F)cc1
 | 31.2 |  |  | 4.63 |  | 3.33 |  | 5.91 |  | 10.2 |  | 8.7 | 5.62 | 55.1 |  |  | Cc1cccc(CN2CCN(C(c3ccccc3)c3ccc(Cl)cc3)CC2)c1 (configuration not stated)
35.2 |  | -7.57 | -3.17 |  | -7.95 |  | -6.54 |  | 2.52 |  | 1.45 |  |  |  | 2.88 |  | CC[C@@H]1[C@H](F)C(=O)N[C@@H]1COc1nccc2cc(C(N)=O)c(OC)cc12

SMILES | inhibition ([1]; Compound Concentration 1.0 uM) [%] | inhibition ([1]; Compound Concentration 10.0 uM) [%] | inhibition ([2]; Compound Concentration 1.0 uM) [%] | inhibition ([3]; Compound Concentration 1.0 uM) [%] | inhibition ([4]; Compound Concentration 10.0 uM) [%] | inhibition [5, 9] [%] | inhibition [5, 10] [%] | inhibition ([6]; Compound Concentration 1.0 uM) [%] | inhibition ([6]; Compound Concentration 10.0 uM) [%] | inhibition ([7]; Compound Concentration 1.0 uM) [%] | inhibition ([7]; Compound Concentration 10.0 uM) [%] | inhibition ([8]; Compound Concentration 1.0 uM) [%] | inhibition ([2]; Compound Concentration 10.0 uM) [%] | inhibition ([3]; Compound Concentration 10.0 uM) [%] | inhibition ([8]; Compound Concentration 10.0 uM) [%] | inhibition ([4]; Compound Concentration 1.0 uM) [%] | inhibition ([5]; Compound Concentration 10.0 uM, Hit Yes) [%]
C=CC(=O)Nc1ccc2[nH]c(=O)n(C3CCN(Cc4ccc(-c5ccc6c(c5)NC(=O)CO6)cc4)CC3)c2c1 |  | 30.3 |  |  | -2.83 |  | 15.8 |  | 1.08 |  | 16.7 |  | -1.48 | 2.54 | 22.1 |  | 
O=C1NCN(c2ccccc2)C12CCN(CC1COc3ccccc3O1)CC2 (configuration not stated) |  | 2.98 |  |  | 2.66 |  | -5.28 |  | -8.19 |  | 1.76 |  | -3.23 | -5.84 | -3.04 |  | 
